According to US5079346A, “Gallium-labelled imaging agents” (priority 1990, dated 1992):
Several values for one entry are separate records, joined by “and”; a condition that tells them apart may be missing. Identical values can stand only once. Like-named read-outs stand apart in the source and are kept apart here.

Key:
[1] = Biodistribution in rats after an iv injection; format: in vivo, male Sprague Dawley rats; settings: for Biodistribution, Blood: blood assumed 7% of body weight; for Biodistribution, Muscle: muscle assumed 40% of body weight; for Brain/Blood: ratio
Protocol: Biodistribution of [^67 Ga]BAT-TECH was studied in male Sprague Dawley rats (200-250 g) which were allowed access to food and water ad lib. Saline solution containing [^67 Ga]BAT-TECH in a volume of 0.2 ml was injected directly into a femoral vein. Rats were sacrified (at various time points, 2, 30 and 60 min., post injection) by cardiac excision under ether anesthesia. The organs of interest were removed and counted using a well gamma counter. Percent dose per organ was calculated by comparison of tissue counts to suitably diluted aliquots of injected material. Total activities of blood and muscle were calculated assuming that they are 7% and 40% of total body weight, respectively. Each time point consists of a group of three rats.
2,9-Dimethyl-2,9-mercapto-5-(2-hydroxyphnyl)-4,7-diazadecane was labelled, and the biodistributino of the labelled compound measured, by analogous methods.

[2] = rats, cited from earlier work
[3] = literature; cited from earlier work
[4] = literature, cited from earlier work
[5] = Lipid solubility (reverse phase HPLC, PRP-1 column); format: physicochemical; settings: PRP-1, pH 7
Protocol: At tracer concentrations, the aqueous chemistry has been studied using [^67 Ga] gallium citrate as the starting material. […] The ratio of ligand to ^67 Ga was determined to be […]. Presumably, under the conditions required for the preparation of the ^67 Ga complex, the cationic [^67 Ga(BAT-TECH)]^+ species is formed.

[6] = 1-octanol/0.1 m phosphate
Protocol: The partition coefficient of the [^67 Ga(BAT-TECH)]^+ complex was measured by mixing the compound with 3 g each of 1-octanol and buffer (pH 7.0 or 7.4, 0.1 M phosphate) in a test tube. This test tube was vortexed for 3 minutes at room temperature and then centrifuged for 5 minutes. Two weighed samples (0.5 g each) from the 1-octanol and buffer layers were counted in a well counter. The partition coefficient was determined by calculating the ratio of counts per minute/gram of octanol to that of buffer. Samples from the octanol layer were repartitioned until consistent partition coefficient values were obtained. The measurement was repeated three times.

[7] = iv, versus [^68 Ga](5-MeOSal)3 TAME

| SMILES | Biodistribution, Brain ([1]; iv, 2 min) | Biodistribution, Heart ([1]; iv, 2 min) | Biodistribution, Kidney ([1]; iv, 2 min) | Biodistribution, Liver ([1]; iv, 2 min) [% dose/organ] | Biodistribution, Lung ([1]; iv, 2 min) | Biodistribution, Skin ([1]; iv, 2 min) | Biodistribution, Spleen ([1]; iv, 2 min) | Biodistribution, Blood ([1]; iv, 2 min) | Biodistribution, Muscle ([1]; iv, 2 min) [% dose/organ] | Biodistribution, Brain ([1]; iv, 30 min) | Biodistribution, Heart ([1]; iv, 30 min) | Biodistribution, Kidney ([1]; iv, 30 min) | Biodistribution, Liver ([1]; iv, 30 min) [% dose/organ] | Biodistribution, Lung ([1]; iv, 30 min) | Biodistribution, Skin ([1]; iv, 30 min) | Biodistribution, Spleen ([1]; iv, 30 min) | Biodistribution, Blood ([1]; iv, 30 min) | Biodistribution, Muscle ([1]; iv, 30 min) [% dose/organ] | also measured |
| --- | --- | --- | --- | --- | --- | --- | --- | --- | --- | --- | --- | --- | --- | --- | --- | --- | --- | --- | --- |
| CC1(C)C[NH+]2CC(c3ccccc3O)[NH+]3CC(C)(C)[S][67Ga-]23[S]1 (stereo not drawn) [[^67 Ga]2,9-Dimethyl-2,9-Dimercapto-5-(2-hydroxyphenyl)-4,7-diazadecane] | .026 ± .002 % dose/organ | .940 ± .094 % dose/organ | 5.677 ± .266 % dose/organ | 20.93 ± 4.13 | 1.236 ± .155 % dose/organ | .137 ± .023 % dose/organ | .431 ± .085 % dose/organ | 11.240 ± .724 % dose/organ | 14.392 ± 2.91 | .019 ± .001 % dose/organ | .380 ± .039 % dose/organ | 1.204 ± .080 % dose/organ | 25.31 ± 1.09 | .690 ± .481 % dose/organ | .079 ± .004 % dose/organ | .155 ± .022 % dose/organ | 2.823 ± .182 % dose/organ | 17.49 ± 1.37 | Brain/Blood ([1]; iv, 2 min): .028; Brain/Blood ([1]; iv, 30 min): .073 |
| COc1ccc2c(c1)C=NCC1(C)CN=Cc3cc(OC)ccc3[O][68Ga]([O]2)[O]c2ccc(OC)cc2C=NC1 [[^68 Ga](5-MeOSal)3 TAME, Gallium-68 1,1,1-tris (5-methoxysalicylaldimino-methyl)ethane] |  |  |  |  |  |  |  |  |  |  |  |  |  |  |  |  |  |  | heart uptake ([2]; 1 min postinjection): 0.97 % dose/whole heart; heart uptake ([2]; 30 min postinjection): 0.23 % dose/whole heart; heart uptake ([2]; 60 min postinjection): 0.14 % dose/whole heart |
| CNC1=NN=CC(C)=NN=C(NC)[S][Cu][S]1 [Cu(PTSM), copper-labeled pyruvaldehyde bis(N4-methylthiosemicarbazone)] |  |  |  |  |  |  |  |  |  |  |  |  |  |  |  |  |  |  | lipid solubility [3]: neutral and lipid-soluble; intracellular stability ([4]; after interacting with sulfurhydryl groups): decomposes intracellularly; passage through the cell membrane / blood-brain barrier ([4]; after intravenous injection): passes through the cell membrane, including the intact blood-brain barrier |
| CCC1(CC)C[NH+]2CC3(CCCCC3)[NH+]3CC(CC)(CC)[S][67Ga-]23[S]1 (stereo not drawn) [[^67 Ga]BAT-TECH] | 0.02 ± 0.004 % dose/organ | 1.68 % dose/organ and 1.68 ± 0.12 % dose/organ | 6.94 ± 0.31 % dose/organ | 21.52 ± 1.11 | 2.07 ± 0.07 % dose/organ | 5.44 ± 1.65 % dose/organ | 0.50 ± 0.06 % dose/organ | 10.18 ± 0.30 % dose/organ | 13.89 ± 3.21 | 0.01 ± 0.001 % dose/organ | 0.52 ± 0.08 % dose/organ | 2.00 ± 0.10 % dose/organ | 33.54 ± 4.42 | 0.46 ± 0.09 % dose/organ | 7.56 ± 1.60 % dose/organ | 0.15 ± 0.009 % dose/organ | 3.58 ± 0.08 % dose/organ | 21.14 ± 2.18 | lipid solubility [5]: very lipid-soluble; partition coefficient (1-octanol/buffer) ([6]; pH 7): 147±5.18; partition coefficient (1-octanol/buffer) ([6]; pH 7.4): 72.3±3.47; blood and lung washout ([1]; in words): rapid blood and lung washout; myocardial uptake ([1]; in words): fast myocardial uptake; uptake in the liver, washout ([1]; iv): significant uptake in the liver which does not wash out with time; heart uptake ([1]; iv, 30 min): 0.52 % dose/g; Biodistribution, Brain ([1]; iv, 60 min): 0.01 ± 0.002 % dose/organ; Biodistribution, Heart ([1]; iv, 60 min): 0.26 ± 0.02 % dose/organ; Biodistribution, Kidney ([1]; iv, 60 min): 1.06 ± 0.14 % dose/organ; Biodistribution, Liver ([1]; iv, 60 min): 46.41 ± 2.39 % dose/organ; Biodistribution, Lung ([1]; iv, 60 min): 0.37 ± 0.009 % dose/organ; Biodistribution, Skin ([1]; iv, 60 min): 5.78 ± 0.92 % dose/organ; Biodistribution, Spleen ([1]; iv, 60 min): 0.11 ± 0.001 % dose/organ; Biodistribution, Blood ([1]; iv, 60 min): 4.54 ± 1.10 % dose/organ; Biodistribution, Muscle ([1]; iv, 60 min): 10.79 ± 1.85 % dose/organ; heart uptake ([1]; iv, 1 hour): 0.26 % dose/g; heart to blood ratio [1, 7]: comparable to or superior to those reported for [^68 Ga](5- MeOSal)3 TAME; heart to lung ratio [1, 7]: comparable to or superior to those reported for [^68 Ga](5- MeOSal)3 TAME |
